Measured values published in ChEMBL document CHEMBL1201862, “PubChem BioAssay data set” (2004).
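Compound exposure: 48 hours, 5 concentrations, 96-well plates. GI50 = concentration required for 50% inhibition of growth.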 Calls of active or inactive are those of the source. Cut-off read from the data, not from the text of the source: active = GI50 up to about 1.1 µM and inactive = higher.

Experiments:
Experiment in all cases: growth of human tumour cells (NCI), 48 h
DLD-1 = system: DLD-1
KM-20L2 = system: KM-20L2
HOP-18 = system: HOP-18
RXF 631 = system: RXF 631
LXFL 529 = system: LXFL 529
XF498 = system: XF498
DMS-273 = system: DMS-273
DMS-114 = system: DMS-114

Measured: GI50

COC(=O)C1=C(C(=O)OC)N(C(C)C)[C@H]2C(C(=O)OC)=C(C(=O)OC)N(C(C)C)[C@@H]12
inactive: DLD-1 > 100 µM | KM-20L2 > 100 µM | HOP-18 > 100 µM | RXF 631 > 100 µM | LXFL 529 > 100 µM | XF498 > 100 µM | DMS-273 > 100 µM | DMS-114 > 100 µM

CCCCC(C)C(OC(=O)CC(CC(=O)O)C(=O)O)C(CC(C)CC(O)CCCCC(O)CC(O)C(C)N)OC(=O)CC(CC(=O)O)C(=O)O (centres undefined)
inactive: DLD-1 > 100 µM | KM-20L2 > 100 µM | HOP-18 > 100 µM | RXF 631 > 100 µM | LXFL 529 > 100 µM

Clc1cc(Cl)cc(Nc2nc3ccccc3nc2-c2cccs2)c1
inactive: DLD-1 41.4 µM | KM-20L2 > 10 µM | HOP-18 28.5 µM | RXF 631 15.8 µM | LXFL 529 35.8 µM | XF498 28.1 µM | DMS-273 14.2 µM

O=C(O)CN(c1ccccc1)S(=O)(=O)c1ccc([N+](=O)[O-])cc1
inactive: DLD-1 > 100 µM | KM-20L2 > 100 µM | HOP-18 > 100 µM | RXF 631 > 100 µM | LXFL 529 > 100 µM | XF498 > 100 µM | DMS-273 > 100 µM

CCOc1ccccc1N1C(=O)C(=O)C(c2nc3ccccc3o2)C(=O)C1=O
inactive: DLD-1 > 100 µM | KM-20L2 > 100 µM | HOP-18 28.7 µM | RXF 631 > 100 µM | LXFL 529 > 100 µM | DMS-273 > 100 µM | DMS-114 > 100 µM

CSCCC(C(=O)O)N(CC1(O)OCC(O)C(O)C1O)N=O (centres undefined)
inactive: DLD-1 > 100 µM | KM-20L2 > 100 µM | RXF 631 > 100 µM | LXFL 529 > 100 µM | XF498 > 100 µM | DMS-273 > 100 µM | DMS-114 > 100 µM

CN1N=C2c3ccccc3OC(c3ccccc3)[C@H]2C1c1ccccc1 (some centres undefined)
inactive: DLD-1 95.3 µM | KM-20L2 51.2 µM | HOP-18 > 100 µM | LXFL 529 37.6 µM | XF498 > 100 µM | DMS-273 > 100 µM | DMS-114 44.1 µM

CCCCCCCC(=O)NCC(O)CNC(=O)CCCCCCC
inactive: DLD-1 > 100 µM | KM-20L2 > 100 µM | HOP-18 > 100 µM | LXFL 529 > 100 µM | XF498 > 100 µM | DMS-273 > 100 µM | DMS-114 > 100 µM

CC(=O)NC(CCCCNC(=O)N(C)N=O)C(=O)NCc1ccccc1 (centres undefined)
inactive: DLD-1 > 100 µM | KM-20L2 > 100 µM | RXF 631 > 100 µM | LXFL 529 > 100 µM | XF498 > 100 µM | DMS-273 > 100 µM | DMS-114 > 100 µM

O=c1ncccn1[C@@H]1O[C@H](CO)[C@H](O)C1O (some centres undefined)
inactive: DLD-1 > 100 µM | KM-20L2 > 78 µM | HOP-18 > 100 µM | LXFL 529 > 100 µM | XF498 > 100 µM | DMS-273 > 77.1 µM | DMS-114 > 100 µM
